Reference: US8034817B2, “Treatment of bacterial diseases of the respiratory organs” (Bayer Pharma Aktiengesellschaft, priority 2003, dated 2011)
Where a name gives a salt, the structure may show the parent alone. Read-outs that look alike come from different tables or passages of the source.

Experiments:
[1] = tested on: P. aeruginosa DSM 12055; assay: Efficacy in a model of lung infection with P. aeruginosa, treatment 1 and 4 hours after infection, microbe count in the lungs; type: in vivo, P. aeruginosa (host: female Wistar rats); conditions: lungs after 24 h relative to untreated infection control, average for 5 animals
Method: Efficacy in a Model of Lung Infection with P. aeruginosa
[…]. Various dose groups each of 5 rats were employed. The animals were sacrificed 24 hours after the infection, and the lungs were removed and homogenized with a Potter from Braun. The homogenates were plated out to determine the microbe count in the lungs.

[2] = average for 3 animals
[3] = tested on: P. aeruginosa DSM 12055; assay: Further test with P. aeruginosa DSM 12055, single intratracheal dry powder treatment, microbe count in the lungs; type: in vivo, P. aeruginosa (host: rats); conditions: single intratracheal treatment 1 hour after infection, 10 mg/kg, DP-3 dry powder insufflator
Method: A dose of 10 mg/kg was administered with the aid of a DP-3 dry powder insufflator (PENN-CENTURY, INC.). It is known from control investigations that about 5 to 20% of the administered dose reach the lungs.

[4] = rats; serum and lungs
[5] = 0.5 h, 7.5 mg/kg intratracheally as suspension, 7.5 mg/kg
[6] = 1 h, 7.5 mg/kg intratracheally as suspension, 7.5 mg/kg
[7] = 3 h, 7.5 mg/kg intratracheally as suspension, 7.5 mg/kg
[8] = 5 h, 7.5 mg/kg intratracheally as suspension, 7.5 mg/kg

For `O=C(O)c1cn(C2CC2)c2cc(N3CCNCC3)c(F)cc2c1=O` [ciprofloxacin betaine (laboratory product)], the “Reduction in microbe count” value ([1]; 0.8 mg/kg i.t.) was −4.0 log units, the “Reduction in microbe count” value ([1]; 2.5 mg/kg i.t.) was −5.8 log units and the “Reduction in microbe count” value ([1]; 7.5 mg/kg i.t.) was −10 log units. The Lung concentration [2, 5] was 44.3 µg/mL, the Lung concentration [2, 6] was 40.1 µg/mL and the Lung concentration [2, 7] was 12.6 µg/mL. The Lung concentration [2, 8] was 7.21 µg/mL.

For `O=C(O)c1cn(C2CC2)c2cc(N3CCNCC3)c(F)cc2c1=O` [ciprofloxacin betaine (micronized), ciprofloxacin betaine], the “Reduction of the microbe count in the lungs compared with an untreated control group” value [3] was “more than 6 log units”, the Lung concentration ([2]; 0.25 h, 7.5 mg/kg intratracheally as suspension, 7.5 mg/kg) was 76 µg/mL and the Lung concentration [2, 5] was 76 µg/mL. For the same molecule, the Lung concentration [2, 6] was 76 µg/mL, the Lung concentration [2, 7] was 54 µg/mL and the Lung concentration [2, 8] was 54 µg/mL.

For `Cl.O=C(O)c1cn(C2CC2)c2cc(N3CCNCC3)c(F)cc2c1=O` [ciprofloxacin hydrochloride], the “Reduction in microbe count” value ([1]; 0.8 mg/kg i.t.) was −1.8 log units, the “Reduction in microbe count” value ([1]; 2.5 mg/kg i.t.) was −1.1 log units and the “Reduction in microbe count” value ([1]; 2.5 mg/kg i.v.) was −2.8 log units. The “Reduction in microbe count” value ([1]; 7.5 mg/kg i.t.) was −2.8 log units, the “Reduction in microbe count” value ([1]; 7.5 mg/kg i.v.) was −3.5 log units and the “Reduction in microbe count” value ([1]; 22.5 mg/kg i.v.) was −5.4 log units. The “Reduction in microbe count” value ([1]; 67.5 mg/kg i.v.) was −8.8 log units, the Lung concentration ([2]; 0.25 h, 7.5 mg/kg intravenously as solution) was 0.61 µg/mL and the Lung concentration ([2]; 0.5 h, 7.5 mg/kg intratracheally as solution) was 1.67 µg/mL. It also gave a Lung concentration ([2]; 0.5 h, 7.5 mg/kg intravenously as solution) of 0.35 µg/mL, a Lung concentration ([2]; 1 h, 7.5 mg/kg intratracheally as solution) of 0.63 µg/mL and a Lung concentration ([2]; 1 h, 7.5 mg/kg intravenously as solution) of 0.14 µg/mL. The Lung concentration ([2]; 3 h, 7.5 mg/kg intratracheally as solution) was 0.10 µg/mL, the Lung concentration ([2]; 3 h, 7.5 mg/kg intravenously as solution) was 0 µg/mL and the Lung concentration ([2]; 5 h, 7.5 mg/kg intratracheally as solution) was 0 µg/mL. It also gave a Lung concentration ([2]; 5 h, 7.5 mg/kg intravenously as solution) of 0 µg/mL.

With `COc1c(N2C[C@@H]3CCCN[C@@H]3C2)c(F)cc2c(=O)c(C(=O)O)cn(C3CC3)c12` [moxifloxacin hydrochloride, Moxifloxacin hydrochloride] the “Fall of the concentration after intratracheal administration to the level reached orally” value [4] was “within about an hour”.
